Measured values taken from patent US20030216361A1, “Therapeutic compositions effective against gram positive bacteria” (priority 2000, published 2003).
Converted amounts (≈) assume the structure as drawn. Read-outs that look alike come from different tables or passages of the source.

What was measured:
[1] = system: Micrococcus luteus Presque Isle 456; assay: Disk diffusion susceptibility testing
[2] = system: Pseudomonas aeruginosa Presque Isle 99; assay: Disk diffusion susceptibility testing
[3] = system: Klebsiella pneumoniae Presque Isle 344; assay: Disk diffusion susceptibility testing
[4] = system: Proteus vulgaris Presque Isle 365; assay: Disk diffusion susceptibility testing
S. saprophyticus = assay: Broth macrodilution MIC and MBC, clinical isolates; settings: 3 strains
[5] = system: Penicillin-resistant Streptococcus pneumoniae; assay: Broth macrodilution MIC and MBC, clinical isolates
Invasive S. pneumoniae = assay: Broth macrodilution MIC and MBC, clinical isolates
Group A Streptococcus = assay: Broth macrodilution MIC and MBC, clinical isolates
[6] = system: Arcanobacterium haemolyticum; assay: Broth macrodilution MIC and MBC, clinical isolates; settings: clinical isolate, 1 strain
[7] = system: Staphylococcus aureus ATCC 29213; assay: Broth macrodilution MIC and MBC, reference strains; settings: ATCC29213
[8] = system: Bacillus subtilis Presque Isle 620; assay: Broth macrodilution MIC and MBC, reference strains

CC(=O)O[C@H]1CC[C@@]2(C)[C@@H](CC[C@@H]3[C@@H]2CC[C@]2(C)[C@@H](NC(=O)[C@@H]4CCCN4)CC[C@@H]32)C1
MIC [1]: 1.56-3.12 μg/disk
MIC [2]: >100 μg/disk
MIC [3]: >100 μg/disk
MIC [4]: >100 μg/disk
MBC Range (S. saprophyticus): 8 µg/mL (≈ 18.6 µM)
MIC Range (S. saprophyticus): 4 to 8 µg/mL
MIC50 ([5]; Streptococcus pneumoniae): 16 µg/mL (≈ 37.2 µM)
MIC90 ([5]; Streptococcus pneumoniae): 16 µg/mL (≈ 37.2 µM)
MBC ([5]; Streptococcus pneumoniae, read-out: MBC 50%): 16 µg/mL (≈ 37.2 µM)
MBC ([5]; Streptococcus pneumoniae, read-out: MBC 90%): 32 µg/mL (≈ 74.3 µM)
MIC Range ([5]; clinical isolates, 35 strains): 8 to 32 µg/mL
share of strains with MBC/MIC ratios ≦2 ([5]; penicillin-resistant S. pneumoniae): 88%
MIC50 (Invasive S. pneumoniae; Streptococcus pneumoniae): 8 µg/mL (≈ 18.6 µM)
MBC Range (Invasive S. pneumoniae; clinical isolates, 15 strains): 8 to 64 µg/mL
share of strains with MBC/MIC ratios ≦2 (Invasive S. pneumoniae; invasive S. pneumoniae): 93%
share of strains with MBC/MIC ratios ≦2 (Group A Streptococcus; Group A Streptococcus): 89%
MIC50 (Group A Streptococcus; Streptococcus): 8 µg/mL (≈ 18.6 µM)
MIC90 (Group A Streptococcus; Streptococcus): 16 µg/mL (≈ 37.2 µM)
MBC (Group A Streptococcus; Streptococcus, read-out: MBC 50%): 16 µg/mL (≈ 37.2 µM)
MBC (Group A Streptococcus; Streptococcus, read-out: MBC 90%): 32 µg/mL (≈ 74.3 µM)
MBC Range (Group A Streptococcus; clinical isolates, 18 strains): 8 to 32 µg/mL
MIC Range (Group A Streptococcus; clinical isolates, 18 strains): 8 to 16 µg/mL
MBC Range [6]: 32 µg/mL (≈ 74.3 µM)
MIC Range [6]: 16 µg/mL (≈ 37.2 µM)
MBC [7]: 64 µg/mL (≈ 149 µM)
MIC [7]: 4 µg/mL (≈ 9.29 µM)
MBC [8]: 4 µg/mL (≈ 9.29 µM)
MIC [8]: 4 µg/mL (≈ 9.29 µM)
